Test: Foam evaluation of the prepared solutions: whether foam was produced, and foam description and quality
Type: physicochemical
Description: Examples 1 through 12 were prepared to illustrate the ability to produce alcohol-based disinfecting formulations which can be dispensed as foams using different surfactants and a solution of water and 50% ethanol. Examples 13 through 16 illustrate increasing concentrations of a silicone-based surfactant to produce foam with 40% ethanol. Examples 17 through 32 show increasing concentrations of ethanol with different silicone-based surfactants to produce foam. Examples 33 through 36 illustrate increasing concentrations of a silicone-based surfactant to produce acceptable foam at 62% ethanol. Examples 37 through 52 illustrate the ability to produce foam using different surfactants and a solution of 70% v/v Isopropanol. All parts and percentages are expressed by weight unless otherwise indicated.
The following examples were intended to evaluate the foaming ability of different groups of silicone surfactants with different combinations of ethanol, n-propyl alcohol and Isopropyl alcohol. They were also designed to asses the effect in the after feel as well as in the foam quality of some emollients and humectants, lipids, and other cosmetic type desired ingredients to be used with a leave-on hand sanitizer product. […]
The solutions prepared, were evaluated as to whether foam was produced or not and if so, then the foam produced was described as follows: […]

## Cocamidopropyl betaine
CAPB alone, 40% ethanol, 3% CAPB, versus 60% v/v ethanol with less than 1.0% silicone-based surfactant
  Foam result compared with silicone-based surfactants: unable to produce as good results
Above 40% ethanol
  Acceptable foam: does not give any acceptable foam

Reference: patent US8309111B2, “High alcohol content foaming compositions with silicone-based surfactants” (Deb Worldwide Healthcare Inc., priority 2005, dated 2012)
